Measurements reported in patent publication US20180282679A1, “CELL CULTURE APPARATUS” (The Ritsumeikan Trust, priority 2015, published 2018).

Columns and labels:
caco-2 cells [1] = test: Evaluation Test 3: absorption of dyes in tubular-form culture substrates having different inner diameters; assay type: in vitro ADME; settings: inner diameter 0.5, 1.0 and 2.0 mm; flow rate 0.05 mL/min, perfused for 3 minutes
From the text: The inventors of the present application studied dynamic characteristics of a fluid and absorption of a drug into a culture substrate in a tubular form when a liquid such as a drug solution was caused to flow in the culture substrate. Specifically, a fluid containing a drug was caused to flow in a plurality of types of tubular-form culture substrates having different inner diameters, and the states of the culture substrates before and after the flow of the fluid were observed. In addition, dynamic characteristics of the fluid in the respective tubular-form culture substrates were obtained by calculation.
where Q is the flow rate of the liquid, μ is the viscosity of the liquid, ρ is the density of the liquid, L is the length of the tube, and r is the radius of the tube. The flow rate Q of the liquid is 0.05 mL/min, and the liquid was perfused for 3 minutes.
FIGS. 19A, 19B and 19C show images obtained by causing a fluid containing Texas Red as a model of a lipophilic drug to flow in three types of tubular-form culture substrates having different diameters, and imaging fluorescence signals from the Texas Red. […]
FIGS. 20A, 20B and 20C show images obtained by causing a fluid containing calcein as a model of a hydrophilic drug to flow in three types of tubular-form culture substrates having different inner diameters, and imaging fluorescence signals from the calcein.

caco-2 cells [2] = test: Evaluation Test 2: perfusion of fluorescent dyes through the tubular-form culture substrate, absorption into cultured cells; assay type: in vitro ADME; settings: HBSS, flow rate 0.05 mL min^-1 for 1 hour; calcein 100 μmol L^-1, Texas Red 10 μmol L^-1
Description: Specifically, caco-2 cells imitating intestinal epithelium were cultured on a culture substrate. Caco-2 cells produced by DS pharma biomedical Co., Ltd. were used. The caco-2 cells were cultured in DMEM (Dulbecco-modified eagle's medium) to which 10% heat inactivated fetal bovine serum, penicillin G (100 U mL^−1), streptomycin (100 μg mL^−1), and 1% non-essential amino acid were added, under an environment at 37° C., 5% CO2), and 95% air. The caco-2 cells were dissociated in EDTA and 0.05% trypsin and passaged, and then the cells were seeded on collagen that forms a culture substrate on an upper surface of a balloon actuator. The caco-2 cells reached confluence in 7 days. The culture medium was replaced every 24 hours. […]
The culture substrate in the tubular form was perfused with HBSS (Hanks' Balanced Salt Solution) containing fluorescent dyes, as a liquid corresponding to a drug solution, at a flow rate of 0.05 mL min^−1 for 1 hour. […] Thereafter, bright field images and fluorescence images of the caco-2 cells at a bottom part and an upper part of the culture substrate in the tubular form were observed.
FIGS. 16A, 16B, 16C, 16D, 16E and 16G show microscope images of the caco-2 cells. […] FIGS. 16C and 16D show images obtained by imaging fluorescence signals from calcein at the bottom part and the upper part of the culture substrate in the tubular form, respectively. […]

Row | Compound | speed of absorption depending on inner diameter of the tubular-form culture substrate (fluorescence images) (caco-2 cells [1]) | absorption in the caco-2 cells (fluorescence images at bottom part and upper part of the tubular culture substrate) (caco-2 cells [2])
1 | O=C(O)CN(CC(=O)O)Cc1cc2c(cc1O)Oc1cc(O)c(CN(CC(=O)O)CC(=O)O)cc1C21OC(=O)c2ccccc21 [calcein] | substantially no difference was observed in the speed of absorbing the hydrophilic drug | uniformly absorbed in the caco-2 cells
2 | Texas Red | the smaller the inner diameter of the tube is, the faster the lipophilic drug is absorbed | uniformly absorbed in the caco-2 cells
